Reference: patent US8987213B2, “Peptides that selectively home to heart vasculature and related conjugates and methods” (Sanford-Burnham Medical Research Institute, priority 2004, dated 2015)
Entries after “also recorded” stand apart in the source; their conditions may differ. Where no end group is shown, it is not given here.

Experiments:
heart vasculature = test: In vivo heart homing of individual phage-displayed peptides after intravenous injection; parameters: species or system mouse; details: for selective homing to the heart (in words): peptide displayed on T7 phage, intravenous injection into mice
Description: The indicated peptides identified from a combined screen for heart endothelial homing were reconstituted in T7 phage and individually administered by intravenous injection into mice. […] The highest specificity (over 300-fold) was recorded for the CRPPR (SEQ ID NO: 1)-displaying phage. (A) CRPPR (SEQ ID NO: 1) phage homing to heart, kidney, brain, muscle and lung. (B) CARPAR (SEQ ID NO: 5) phage homing to heart, kidney, brain, muscle and lung. (C) CKRAVR (SEQ ID NO: 7) phage homing to heart, kidney, brain, muscle and lung. (D) CLIDLHVMC (SEQ ID NO: 10) phage homing to heart, kidney, brain, muscle and lung. (E) CRSTRANPC (SEQ ID NO: 11) phage homing to heart, kidney, brain, muscle and lung. (F) CPKTRRVPC (SEQ ID NO: 12) phage homing to heart, kidney, brain, muscle and lung.
In vivo panning was performed as follows. The ex vivo-selected phage pool (5×10^9 p.f.u.) was intravenously injected into mice through the tail vein and allowed to circulate for ten minutes before mice were carefully perfused through the left ventricle with DMEM in order to remove unbound intravascular phage. The heart and control tissues (brain, kidney, skin and muscle) were excised, and phage recovered as described in Hoffman et al., supra, 2004. Phage recovered from the heart were reinjected into mice, and the cycle was repeated for a total of three rounds. Non-recombinant phage were injected into a separate mouse as a control in each experiment.
Individual phage clones were reconstructed as follows. Oligonucleotides that encoded peptides from selected bait plasmids were synthesized, phosphorylated with T4 polynucleotide kinase (PNK; NEB) at 37° C. for one hour, and annealed at a concentration of 0.08 pmol/μl. The annealed inserts were diluted to 0.04 pmol/μl and ligated into T7Select 415-1 arms (Novagen) with T4 ligase overnight at 16° C. The next day, intact recombinant phage were prepared by mixing the ligation reaction with packaging extracts as described by the manufacturer. Inserts were confirmed by sequencing, and individual clones were amplified for ex vivo and in vivo testing as described in Example I above.

heart endothelia = test: Phage localization in tissues by anti-T7 immunostaining, co-injected with fluorescein-conjugated tomato lectin; format: in vivo, mouse; details: peptide displayed on phage, injected intravenously with tomato lectin
Description: Further characterization was performed on the five most efficient homing peptides, as indicated by the fold-selectivity summarized in Table 1, and their putative receptors. These homing peptides were analyzed for the ability to selectively bind heart endothelia in vivo and for specific binding to their putative receptors, which also were analyzed for expression in heart endothelia. Each of the phage-displaying a particular homing peptide was individually injected intravenously into mice with fluorescein-conjugated tomato lectin, a blood vessel marker. […] None of the six phage were detected in tissues other than heart under the same conditions.
Immunohistochemistry was performed as follows. Rat monoclonal anti-mouse CD31 (1:100) was obtained from BD Pharmingen (San Jose, Calif.), and rabbit polyclonal anti-T7 phage (1:500), and chicken anti-mouse CRIP2 IgY (1:100) were obtained from GenWay (San Diego, Calif.). Secondary antibodies, AlexaFluor-488 goat anti-rat IgG (1:1000) and AlexaFluor-594 goat anti-rat or rabbit IgG (1:1000) were obtained from Molecular Probes (Eugene, Oreg.); the secondary antibody GAYFC-AlexaFluor 594 goat anti-IgY Fc (1:250) was obtained from GenWay. Frozen sections were preincubated with blocking buffer (5% normal goat serum and 0.5% BSA in 1×PBS) for one hour, washed three times with PBS, and incubated with the primary antibody of interest overnight at 4° C. After the overnight incubation, secondary antibodies were added and incubated for one hour at room temperature. Slides were washed three times with PBS and mounted in Vectashield Mounting Medium with DAPI (Vector Laboratories; Burlingame, Calif.). Blood vessels were additionally visualized by intravenous injection with Lycopersicon esculentum (tomato) lectin conjugated to fluorescein (100 μg in 200 μl of PBS) purchased from Vector Laboratories.

MpcII-3-related protein = molecular target: T1, MpcII-3-related protein (Mus musculus, UniProt Q9CZB0); test: Phage binding to receptor-transfected 293T cells and peptide competition; parameters: species or system murine; details: free synthetic peptide 100 μg/ml
T1 construct: Full-length cDNAs were constructed for four of the putative heart homing receptors; expressed in transfected cells; host or cells: 293T cells, pMH6-derived plasmid
T1 sequence (Q9CZB0 30-169): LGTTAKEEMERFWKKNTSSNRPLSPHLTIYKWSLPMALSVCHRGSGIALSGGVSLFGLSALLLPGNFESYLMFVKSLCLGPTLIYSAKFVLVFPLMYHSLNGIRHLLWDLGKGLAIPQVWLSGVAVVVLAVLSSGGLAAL
Description: (§1) Receptor transfections and phage binding assays were performed as follows. 293T cells were transfected with pMH6-derived plasmids (Roche Diagnostics; Indianapolis, Ind.) encoding HLP/CRIP2, Sigirr/TIR8, MpcII-3-related protein and bc10 using the Fugene transfection reagent (Roche Diagnostics). Briefly, 10 μg of plasmid was mixed with 700 μl of serum-free DMEM and 30 μl of Fugene transfection reagent and incubated for 15 minutes at room temperature before the mixture was added to cells. After forty-eight hours, cells were detached from culture dishes using EDTA and washed once with PBS. Phage displaying CRPPR (SEQ ID NO: 1), CKRAVR (SEQ ID NO: 7), CRSTRANPC (SEQ ID NO: 11) or CPKTRRVPC (SEQ ID NO: 12) and nonrecombinant control phage (1×10^9 p.f.u) were incubated with transfected cells for two hours at 4° C. Unbound phage were removed by five washes with 1% BSA in PBS. Bound phage were rescued by addition of bacteria; binding efficiencies were determined by plaque assay as described above.
(§2) Peptides for competition assays were synthesized at The Burnham Institute peptide facility using Fmoc chemistry in a solid-phase synthesizer prior to purification by HPLC and confirmation of their identity by mass spectrometry. Fluorescein-conjugated peptides were synthesized as described in Wender et al., Proc. Natl. Acad. Sci. USA 97:13003-13008 (2000). Competition assays were performed by addition of 100 μg peptide to the cells and phage, followed by incubation at 4° C. for two hours. After five washes with […], bound phage were rescued and quantitated by plaque assay.

Sigirr/TIR8 = molecular target: T2, Sigirr/TIR8 (Mus musculus, UniProt Q9JLZ8); test: as above; parameters: species or system murine; details: free synthetic peptide 100 μg/ml
T2 construct: Full-length cDNAs were constructed for four of the putative heart homing receptors; expressed in transfected cells; host or cells: 293T cells, pMH6-derived plasmid
T2 sequence (Q9JLZ8 1-409): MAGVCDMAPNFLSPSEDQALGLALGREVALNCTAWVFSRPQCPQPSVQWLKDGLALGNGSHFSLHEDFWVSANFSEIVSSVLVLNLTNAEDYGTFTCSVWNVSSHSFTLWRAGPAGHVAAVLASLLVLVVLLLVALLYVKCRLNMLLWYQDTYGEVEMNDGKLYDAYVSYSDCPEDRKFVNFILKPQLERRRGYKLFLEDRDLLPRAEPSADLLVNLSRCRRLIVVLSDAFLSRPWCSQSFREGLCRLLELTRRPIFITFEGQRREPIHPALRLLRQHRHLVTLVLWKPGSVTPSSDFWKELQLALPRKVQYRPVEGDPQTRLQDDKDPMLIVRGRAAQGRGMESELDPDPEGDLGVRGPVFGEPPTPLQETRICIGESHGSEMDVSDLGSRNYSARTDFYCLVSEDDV
Description: as §1, §2

HLP/CRIP2 = molecular target: T3, HLP/CRIP2 (Mus musculus, UniProt Q9DCT8); test: as above; parameters: species or system murine; details: free synthetic peptide 100 μg/ml
T3 construct: Full-length cDNAs were constructed for four of the putative heart homing receptors; expressed in transfected cells; host or cells: 293T cells, pMH6-derived plasmid
T3 sequence (Q9DCT8 1-208): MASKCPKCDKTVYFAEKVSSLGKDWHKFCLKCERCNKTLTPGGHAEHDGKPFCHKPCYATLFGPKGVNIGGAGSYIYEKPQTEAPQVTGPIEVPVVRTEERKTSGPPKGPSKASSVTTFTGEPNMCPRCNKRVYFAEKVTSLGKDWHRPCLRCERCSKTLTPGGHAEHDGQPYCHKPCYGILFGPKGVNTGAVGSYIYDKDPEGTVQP
Description: as §1, §2

[1] = test system: heart-derived cell suspensions; test: Competition of CRPPR-displaying phage binding to heart-derived cell suspensions; format: cell-based, murine; details: various concentrations of antibody or free peptide
Description: CRPPR (SEQ ID NO: 1)-displaying phage were incubated with cell suspensions prepared from the heart; phage binding was measured in the presence and absence of various concentrations of the indicated antibodies or peptides. (A) A chicken anti-CRIP2 antibody blocked SEQ ID NO: 1-displaying phage binding to heart cells; normal IgY was used as the negative control. […] (C) In vivo homing of the CRPPR (SEQ ID NO: 1)-displaying phage to the heart was inhibited by co-injected anti-CRIP2 antibody. Shown are the mean and standard deviation from three separate experiments.
The specificity of CRPPR (SEQ ID NO: 1)-phage binding to heart vasculature was assayed using competition assays. […] As negative controls, two other heart-homing peptides had no effect on the CRPPR (SEQ ID NO: 1)-phage binding. Furthermore, co-injected anti-HLP/CRIP2 antibody inhibited in vivo homing of CRPPR (SEQ ID NO: 1)-phage (FIG. 7C).

bc10 = molecular target: T4, bc10 (Mus musculus, UniProt P62951); test: Phage binding to receptor-transfected 293T cells and peptide competition; parameters: species or system murine; details: free synthetic peptide 100 μg/ml
T4 construct: Full-length cDNAs were constructed for four of the putative heart homing receptors; expressed in transfected cells; host or cells: 293T cells, pMH6-derived plasmid
T4 sequence (P62951 1-87): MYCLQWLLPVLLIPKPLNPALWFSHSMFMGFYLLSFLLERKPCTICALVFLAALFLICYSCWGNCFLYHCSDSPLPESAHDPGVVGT
Description: as §1, §2

endothelin A-receptor = molecular target: T5, endothelin A-receptor (Homo sapiens, UniProt P25101); details: cited from earlier work
T5 construct: host or cells: patients
T5 sequence (P25101 21-427): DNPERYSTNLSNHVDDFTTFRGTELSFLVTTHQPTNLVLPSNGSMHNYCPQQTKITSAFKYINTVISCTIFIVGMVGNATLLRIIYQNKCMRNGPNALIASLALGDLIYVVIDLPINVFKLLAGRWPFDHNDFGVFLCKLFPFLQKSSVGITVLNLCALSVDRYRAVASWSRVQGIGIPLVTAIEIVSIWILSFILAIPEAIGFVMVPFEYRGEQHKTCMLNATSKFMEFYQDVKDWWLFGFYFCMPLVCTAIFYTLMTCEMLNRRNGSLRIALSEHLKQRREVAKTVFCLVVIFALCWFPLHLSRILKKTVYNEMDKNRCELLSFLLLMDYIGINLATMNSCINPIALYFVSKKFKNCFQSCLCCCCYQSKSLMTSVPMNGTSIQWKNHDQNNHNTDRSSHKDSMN

## CPKRPR (displayed on phage)
Heart vasculature
  selective homing to the heart (in words): exhibited selective homing to the heart

## CLIDLHVMC (displayed on phage) [peptide identified with receptor clone 27; negative control phage]
Heart endothelia
  phage localization in heart endothelia (anti-T7 antibody): absent from the heart
Heart endothelia; listed as SEQ ID NO: 10
  phage localization in heart endothelia (anti-T7 antibody): absent from the heart and other tissues
Heart vasculature
  selective homing to the heart (in words): no specific homing to the heart

## CRSTRANPC [on phage and as free peptide]
MpcII-3-related protein
  inhibition of CRSTRANPC-phage binding to MpcII-3-related protein-transfected cells by free peptide: inhibited
Heart endothelia
  phage detection in tissues other than heart (anti-T7 antibody): absent from other tissues
  phage localization in heart endothelia (anti-T7 antibody): present in heart endothelia

## CKRAVR [on phage and as free peptide]
Sigirr/TIR8
  inhibition of CKRAVR-phage binding to Sigirr/TIR8-transfected cells by free peptide: inhibited
Heart endothelia
  phage detection in tissues other than heart (anti-T7 antibody): absent from other tissues
  phage localization in heart endothelia (anti-T7 antibody): present in heart endothelia

## CRPPR (not fully specified) [tested on T7 phage, as free peptide and fluorescein-conjugated]
HLP/CRIP2
  inhibition of CRPPR-phage binding to HLP/CRIP2-transfected cells by free peptide: inhibited
[1]
  inhibition of CRPPR-displaying phage binding to heart-derived cell suspensions: blocked; also recorded: Dose dependent inhibition
Heart endothelia
  phage detection in tissues other than heart (anti-T7 antibody): absent from other tissues
  phage localization in heart endothelia (anti-T7 antibody): present in heart endothelia
Heart vasculature; peptide displayed on phage, lung tissue
  phage homing to the lungs: little

## CARPAR (displayed on phage)
Heart endothelia
  phage detection in tissues other than heart (anti-T7 antibody): absent from other tissues
  phage localization in heart endothelia (anti-T7 antibody): present in heart endothelia
Heart vasculature
  selective homing to the heart (in words): exhibited selective homing to the heart

## CPKTRRVPC [on phage and as free peptide]
bc10
  inhibition of CPKTRRVPC-phage binding to bc10-transfected cells by free peptide: inhibited
Heart endothelia
  phage detection in tissues other than heart (anti-T7 antibody): absent from other tissues
  phage localization in heart endothelia (anti-T7 antibody): present in heart endothelia

## CGNQVDSRC (displayed on T7 phage)
Heart vasculature
  selective homing to the heart (in words): no significant selective homing

## CPSELLLP (displayed on phage)
Heart vasculature
  selective homing to the heart (in words): did not

## Cc1cc2c(cc1CC(=O)c1sccc1S(=O)(=O)Nc1onc(C)c1Cl)OCO2 [TBC 11251]
Endothelin A-receptor
  clinical effect in patients with moderate to severe congestive heart failure: significant improvement
